Reference: the supplement of paper PMC10307832

Key:
Test in all cases: relative viability (nuclei count vs DMSO), 5 days (fraction); higher = more cells survive
CUDC-101 + Phenformin = compound: C#Cc1cccc(Nc2ncnc3cc(OC)c(OCCCCCCC(=O)NO)cc23)c1 [CUDC-101] + N=C(N)NC(=N)NCCc1ccccc1 [Phenformin] (partner 250 µM)
In short: (§1)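 Lung cancer cell lines in 1536-well plates were dosed by pin tool the day after seeding, either with one drug alone or with a fixed anchor-drug dose plus five library-drug doses (not always all listed) in √10 steps. After 5 days, cells were fixed and their nuclei stained in one step (final 0.05% Triton X-100, 1% formaldehyde, 1 ug/ml Hoechst), then counted on 4× images. Relative viability is the nuclei count in treated wells divided by that in vehicle wells. Values are medians of duplicate plates.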

[1] = compound: C1=CC=C2C(=C1)N=C(S2)C(C#N)C3=NC(=NC=C3)NCCC4=CN=CC=C4 + O=C(CCCCCCC(=O)Nc1ccccc1)NO [Vorinostat] (partner 1 µM)
In short: as §1

Vandetanib + Pictilisib = compound: COc1cc2/c(=N/c3ccc(Br)cc3F)nc[nH]c2cc1OCC1CCN(C)CC1 [Vandetanib] + CS(=O)(=O)N1CCN(Cc2cc3nc(-c4cccc5[nH]ncc45)nc(N4CCOCC4)c3s2)CC1 [Pictilisib] (partner 1 µM)
In short: as §1

Vandetanib + AZD7762 = compound: COc1cc2/c(=N/c3ccc(Br)cc3F)nc[nH]c2cc1OCC1CCN(C)CC1 [Vandetanib] + NC(=O)Nc1cc(-c2cccc(F)c2)sc1C(=O)N[C@H]1CCCNC1 [AZD7762] (partner 0.2 µM)
In short: as §1

Cell Line	relative viability (CUDC-101 + Phenformin; first compound 0.01 µM)	relative viability (CUDC-101 + Phenformin; first compound 0.03162 µM)	relative viability (CUDC-101 + Phenformin; first compound 0.1 µM)	relative viability (CUDC-101 + Phenformin; first compound 0.3162 µM)	relative viability (CUDC-101 + Phenformin; first compound 1 µM)	relative viability ([1]; first compound 0.005 µM)	relative viability ([1]; first compound 0.01581 µM)	relative viability ([1]; first compound 0.05 µM)	relative viability ([1]; first compound 0.1581 µM)	relative viability ([1]; first compound 0.5 µM)	relative viability (Vandetanib + Pictilisib; first compound 0.02 µM)	relative viability (Vandetanib + Pictilisib; first compound 0.06325 µM)	relative viability (Vandetanib + Pictilisib; first compound 0.2 µM)	relative viability (Vandetanib + Pictilisib; first compound 0.6325 µM)	relative viability (Vandetanib + Pictilisib; first compound 2 µM)	relative viability (Vandetanib + AZD7762; first compound 0.02 µM)	relative viability (Vandetanib + AZD7762; first compound 0.06325 µM)	relative viability (Vandetanib + AZD7762; first compound 0.2 µM)	relative viability (Vandetanib + AZD7762; first compound 0.6325 µM)	relative viability (Vandetanib + AZD7762; first compound 2 µM)
HOP-62	0.628	0.656	0.758	0.683	0.545	0.49	0.626	0.453	0.685	0.642	0.608	0.504	0.669	0.495	0.734	0.661	0.536	0.577	0.412	0.485
LC-2-ad	0.65	0.651	0.689	0.551	0.287	0.621	0.704	0.676	0.823	0.612	0.503	0.4	0.167	0.324	0.19	0.807	0.809	0.766	0.756	0.69
LCLC-97TM1	0.426	0.381	0.436	0.471	0.362	0.608	0.694	0.724	0.725	0.624	0.282	0.2	0.206	0.171	0.188	0.185	0.306	0.299	0.261	0.139
LCLC-103H	0.384	0.367	0.36	0.357	0.31	0.712	0.664	0.718	0.878	0.76	0.565	0.518	0.563	0.528	0.472	0.755	0.783	0.758	0.772	0.82
LK-2	0.369	0.727	0.411	0.479	0.15	0.294	0.278	0.369	0.333	0.355	0.585	0.652	0.531	0.559	0.478	0.36	0.345	0.309	0.369	0.515
LOU-NH91	0.736	0.56	0.534	0.587	0.393	0.907	0.826	0.769	1.03	0.837	0.528	0.565	0.508	0.524	0.515	0.759	0.765	0.678	0.718	0.755
LU99A	0.825	0.682	0.676	0.947	0.572	0.417	0.529	–	0.622	0.477	0.304	0.327	0.336	0.29	0.306	0.303	0.516	0.344	0.238	0.334
LXF-289	0.536	0.523	0.55	0.493	0.408	0.688	0.862	0.811	1	0.729	0.828	0.771	0.773	0.792	0.798	1.07	1.08	1.04	1.1	1.01
NCI-H23	0.793	0.743	0.81	0.851	0.789	–	0.504	0.529	0.804	0.627	0.423	0.427	0.509	0.424	0.506	0.193	0.251	0.199	0.234	0.31
NCI-H322M	0.786	0.69	0.64	0.586	0.438	0.771	0.842	0.789	0.9	0.935	0.397	0.517	0.498	0.459	0.351	0.518	0.567	0.605	0.496	0.374
NCI-H358	0.378	0.346	0.32	0.312	0.193	0.568	0.642	0.557	0.708	0.558	0.285	0.328	0.331	0.316	0.241	0.545	0.465	0.476	0.431	0.358
NCI-H441	0.88	0.486	0.764	0.917	0.776	0.587	0.84	0.818	0.789	0.643	0.333	0.49	0.425	0.527	0.452	1.12	0.945	1.02	1.31	1.34
NCI-H460	0.528	0.501	0.554	0.526	0.486	–	0.651	0.721	0.782	0.354	0.351	0.359	0.349	0.371	0.331	0.497	0.624	0.57	0.466	0.581
NCI-H596	0.886	0.729	0.751	0.772	0.698	0.463	0.446	0.716	0.654	0.676	0.395	0.35	0.323	0.398	0.352	1.15	1.05	1.12	1.02	1.17
NCI-H647	0.564	0.483	0.574	0.418	0.21	0.427	0.553	0.411	0.661	0.605	0.457	0.419	0.349	0.412	0.161	0.404	0.481	0.395	0.404	0.446
NCI-H650	0.453	0.475	0.465	0.385	0.38	0.389	0.392	0.499	0.488	0.393	0.809	0.849	0.884	0.908	0.811	1.01	1.02	0.976	0.941	0.905
